Data set [1] can be described thus: Metal-chelation study by UV-vis spectroscopy and Job's method. The settings on record: compound 50 µM, HEPES buffer pH 7.4, 30 min, shift from 252 nm. Format: physicochemical. On the procedure: Furthermore, the stoichiometry of formation of metal complexes 18f-Cu^2+ and 18f-Zn^2+ was also determined by using Job’s method (Figure 6). The […] shown in Figure 6A,B at 0.6 and 0.5 imply a stoichiometry of 1.5:1 for 18f-Cu^2+ and 1:1 for 18f-Zn^2+.
The chelating studies were performed with a UV–vis spectrophotometer. The absorption spectra of test compound (50 μM, final concentration) alone or in the presence of CuSO4, FeSO4, or ZnCl2 (50 μM, final concentration) in buffer (20 mM HEPES, 150 mM NaCl, pH 7.4) were incubated for 30 min and then recorded at room temperature, respectively. For the stoichiometry of the test compound–Cu^2+ complex or the test compound–Zn^2+ complex, a fixed amount of test compound (50 μM) was mixed with increasing amounts of copper ion or Zn ion (0–100 μM), and the UV–vis difference spectra were analyzed to determine the ratio of ligand/metal ion in the complex.

Data set [2] deals with HEK-tau cells. Briefly: Protein aggregation in HEK-tau cells (ThT staining). Format: cell-based, Human. The settings on record: 1 µM, 48 h, 37 °C; compared to clioquinol (1). On the procedure:
In our study, we have shown that restoring metal homeostasis by treatment with hybrid 8-hydroxyquinoline-indole analogs reduces tau- and amyloid-mediated protein aggregation, and their associated neurotoxicity. Analogs 7a–7d, 18c–18f, and 18h were evaluated for their ability to reduce protein aggregation in HEK-tau cells. HEK-tau cells were exposed to the above Aβ1–42 aggregation inhibitors and parent drug clioquinol (1) at 1 µM for 48 h at 37 °C. Cells were assessed for amyloid deposits by staining with 0.1% w/v thioflavin T, counterstaining nuclei with DAPI, and mean ThT fluorescence signal per nucleus was calculated over multiple fields. All the analogs reduced fluorescence intensity (indicative of protein aggregation) by 26–62% (P < 0.001 by 2-tailed t-test).
(§1) Human Embryonic Kidney cells that overexpress tau protein (HEK-tau) cells or SY5Y neuroblastoma cells that express a familial-AD mutant of amyloid precursor protein (SY5Y-APPSw cells) were each seeded in 96-well plates at 8000 cells per well. After 24 h, cells were supplemented with test compound at 1 µM after diluting with medium. Vehicle only control was also included for each experiment. The cells were cultured for an additional 48 h at 37 °C. Both the cell lines were able to reach approximately 80% confluency in 48 h. Cells were assessed for amyloid deposits by staining with 0.1% w/v ThT, counterstaining nuclei with DAPI, and calculating mean ThT fluorescence signal per nucleus over multiple fields.

The target of data set [3] is T1, Aβ1–42 (Homo sapiens, UniProt P05067).
T1 construct: Aβ1–42 (Adooq Bioscience, CA, USA); purchased Adooq Bioscience
In words: Self-induced Aβ1–42 aggregation, thioflavin T (ThT) fluorescence assay. In kind it is biochemical. The following applies: for EC50: 25 µM Aβ1–42, compound 0.3-27 µM, 37 °C, 48 h, ThT fluorescence, read-out: EC50 against self-induced Aβ1–42 aggregation. On the procedure:
The novel hybrid 8-hydroxyquinoline-indole derivatives, 7a–7e, 12a, 12b, and the (8-hydroxyquinolin-2-yl)methyl-4-(1H-indole-2-carbonyl)piperazine-1-carboxylate analogs 18a–18h were evaluated for inhibitory activity against self-induced Aβ1–42 aggregation at five different concentrations (0.3, 1.0, 3, 9 and 27 µM) with 25 µM Aβ1–42, utilizing a thioflavin T (ThT) fluorescence assay with clioquinol, 1 as a positive control (Figure 3). In the absence of inhibitor, the self-induced Aβ1–42 aggregation ThT fluorescence was recorded as 115 arbitrary units (a.u.). The self-induced Aβ1–42 aggregation results for all the above synthetic analogs from the ThT fluorescence assay are shown in Table 1. […] The thioflavin T (ThT)-fluorescence assay was used to measure the inhibition of Aβ aggregation. Aβ1–42 (Adooq Bioscience, CA, USA) was pretreated with 1 mL of hexafluoroisopropanol (HFIP) to afford a stock solution, which was aliquoted into small samples. The solvent was evaporated at room temperature, and samples were stored at −80 °C. For Aβ1–42 aggregation inhibition experiments, phosphate buffer (pH 7.4) was added to the Aβ stock solution to afford a 50 µM concentration before use. A mixture of the Aβ1–42 peptide (10 µL, 25 µM final concentration) with or without the test compound (10 µL; 0.3, 1.0, 3, 9, and 27 µM) was incubated at 37 °C for 48 h. Blanks using phosphate buffer (pH 7.4) instead of Aβ, with or without test compound, were also assessed. Then 50 mM glycine-NaOH buffer (pH 8.0) containing ThT (5 µM) was added to 20 µL of the sample to afford a final volume of 200 µL. The fluorescence intensities were recorded (excitation, 450 nm; emission, 485 nm). The fluorescence intensities were background corrected to the no enzyme control and 100% of intensity reflected no inhibition of aggregation. To obtain the normalized amyloid aggregation inhibition relative to the control group, the amyloid aggregation/cell values were further divided by the total amyloid fluorescence of the control group. Using GraphPad Prism, the amyloid aggregation values (relative to control group) were entered along the corresponding concentrations for the triplicates and then a log transformation was obtained. Using the dose–response simulation module in GraphPad Prism, nonlinear regression fit (curve) was then generated for each small molecule with various concentrations used. Curves were then compared to determine if they were statistically different, by performing the best-fit values of selected unshared parameters between data sets and extra sum-of-squares F test, allowing for selection of the simpler model unless the P value was less than 0.05. The logEC50 output parameter was then selected to obtain the EC50 for each of the dose–response curves for the small molecules.

The subject of data set [4] is SY5Y-APPSw cells. In words: Protein aggregation in SY5Y-APPSw cells (ThT staining). Format: cell-based. The following applies: 1 µM, 48 h, 37 °C; compared to clioquinol (1). On the procedure:
In another study compounds 7a–7d, 18c–18f, and 18h were also evaluated for their ability to reduce protein aggregation in SY5Y-APPSw cells. SY5Y-APPSw cells were exposed to the above protein aggregation inhibitors and parent compound 1 at 1 µM for 48 h at 37 °C. Cells were assessed for amyloid deposits by staining with 0.1% w/v ThT, counterstaining nuclei with DAPI, and mean ThT fluorescence signal per nucleus calculated over multiple fields. All the analogs reduced fluorescence intensity (indicative of protein aggregation) by 22–67% (P < 0.001 by 2-tailed t-test). […] Thioflavin-T fluorescence assays for in vitro amyloid aggregation and cell culture models of amyloid aggregation overlap but are not identical. This is due to the fact that thioflavin in cell-culture stains not just amyloid aggregates but also other amyloid-like fibrillar structures. Another important difference is that in vitro aggregation is assessed after 24 h, whereas aggregation in cell culture is assessed after 48 h.
as §1

The target of data set [5] is T2, Cu^2+-induced Aβ1–42 aggregation (Homo sapiens, UniProt P05067).
T2 construct: Aβ1–42 (Adooq Bioscience, CA, USA); purchased Adooq Bioscience
In words: Cu2+-induced Aβ1–42 aggregation, ThT fluorescence assay. Format: biochemical. The following applies: compound 50 µM; Aβ1–42 25 µM; Cu^2+ 25 µM; 24 h, 37 °C. On the procedure:
(§2) Initially, CuSO4 or ZnCl2 was added to Aβ1–42 peptides at room temperature and the mixture incubated with or without drugs for 24 h at 37 °C. The fluorescence intensity of Aβ1–42 peptide alone was designated as 100%.
(§3) Mixtures of the peptide (10 µL, 25 µM final concentration) with or without Cu^2+ or Zn^2+ (10 µL, 25 μM final concentration) and the test compound (10 µL, 50 μM final concentration) were incubated at 37 °C for 24 h. Then 50 mM glycine-NaOH buffer (pH 8.0) containing ThT (5 µM) was added to 20 µL of the sample and diluted to afford a final volume of 200 µL. Fluorescence intensities of the solutions were recorded (excitation, 450 nm; emission, 485 nm). The percentage of […] was calculated by the expression (1 − IFi/IFc) × 100, in which IFi and IFc are the fluorescence intensities obtained for Aβ in the presence and absence of inhibitors, respectively.

Data set [6] concerns the target T3, Zn^2+-induced Aβ1–42 aggregation (Homo sapiens, UniProt P05067).
T3 construct: Aβ1–42 (Adooq Bioscience, CA, USA); purchased Adooq Bioscience
Briefly: Zn2+-induced Aβ1–42 aggregation, ThT fluorescence assay. The following applies: compound 50 µM; Aβ1–42 25 µM; Zn^2+ 25 µM; 24 h, 37 °C. In kind it is biochemical. How it is done: as §2, §3

Consider 5 molecules from article PMC7463714, “Design and Synthesis of Novel Hybrid 8-Hydroxy Quinoline-Indole Derivatives as Inhibitors of Aβ Self-Aggregation and Metal Chelation-Induced Aβ Aggregation” (Molecules, 2020).

“Also recorded” adds a separate entry of the source.

T3 sequence (P05067 672-713 limits assumed): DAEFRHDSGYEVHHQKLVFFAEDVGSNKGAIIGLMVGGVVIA
T2 sequence (P05067 672-713 limits assumed): as above
T1 sequence (P05067 672-713 limits assumed): as above

Take `COc1ccc2[nH]c(C(=O)N3CCN(C(=O)OCc4ccc5c(Cl)cc(Cl)c(O)c5n4)CC3)cc2c1` [Compound 18f, (5,7-Dichloro-8-hydroxyquinolin-2-yl)methyl-4-(5-methoxy-1H-indole-2-carbonyl)piperazine-1-carboxylate]: the “maximum absorption wavelength in the presence of Cu^2+” value in data set [1] (CuSO4 50 µM) stood at 274 nm. In addition, the “maximum absorption wavelength in the presence of Fe^2+” value in data set [1] (FeSO4 50 µM) is 255 nm. In addition, the “maximum absorption wavelength in the presence of Zn^2+” value in data set [1] (ZnCl2 50 µM) was 269 nm. Besides, the “protein aggregation inhibition in HEK-tau cells, result in words” value in data set [2] is “most effective; also recorded: effective in reducing protein aggregation”. The 50% effective concentration (EC50) (commonly the midpoint of the concentration-response curve) in data set [3] turned out to be 1.08 µM. In addition, in data set [3] (relative to 1), the “improvement in inhibitory potency over clioquinol (1), Aβ1–42 self-aggregation” value is recorded as 10 fold. Moreover, the “protein aggregation inhibition in SY5Y-APPSw cells, result in words” value in data set [4] is listed as “effective in reducing protein aggregation”.

In the case of `Oc1c(I)cc(Cl)c2cccnc12` [Compound 1, Clioquinol, reference compound], the “decrease of ThT fluorescence / inhibition of Cu^2+-induced Aβ1–42 aggregation” value in data set [5] amounted to 62.5%. The “decrease of ThT fluorescence / inhibition of Zn^2+-induced Aβ1–42 aggregation” value in data set [6] is 57.2%. Also, the 50% effective concentration (EC50) in data set [3] turned out to be 9.95 µM.

Take `O=C(OCc1ccc2c(Cl)cc(Cl)c(O)c2n1)N1CCN(C(=O)c2cc3ccccc3[nH]2)CC1` [Compound 18c, (5,7-Dichloro-8-hydroxyquinolin-2-yl)methyl-4-(1H-indole-2-carbonyl)piperazine-1-carboxylate]: the “decrease of ThT fluorescence / inhibition of Cu^2+-induced Aβ1–42 aggregation” value in data set [5] is recorded as 76.6%. Moreover, the “decrease of ThT fluorescence / inhibition of Zn^2+-induced Aβ1–42 aggregation” value in data set [6] amounted to 70.3%. Moreover, the “protein aggregation inhibition in HEK-tau cells, result in words” value in data set [2] is listed as “most effective; also recorded: effective in reducing protein aggregation”. In addition, the EC50 in data set [3] worked out at 1.72 µM. The “protein aggregation inhibition in SY5Y-APPSw cells, result in words” value in data set [4] is reported as “effective in reducing protein aggregation”.

On to `O=C(OCc1ccc2cccc(O)c2n1)c1cc2ccccc2[nH]1` [Compound 7a, (8-Hydroxyquinolin-2-yl)methyl-1H-indole-2-carboxylate], for which the EC50 in data set [3] was found to be 4.26 µM. The “protein aggregation inhibition in SY5Y-APPSw cells, result in words” value in data set [4] is “most effective”.

With `COc1ccc2[nH]c(C(=O)N3CCN(C(=O)OCc4ccc5cccc(O)c5n4)CC3)cc2c1` [Compound 18d, (8-Hydroxyquinolin-2-yl)methyl-4-(5-methoxy-1H-indole-2-carbonyl)piperazine-1-carboxylate], the “decrease of ThT fluorescence / inhibition of Cu^2+-induced Aβ1–42 aggregation” value in data set [5] turned out to be 66.1%. The “decrease of ThT fluorescence / inhibition of Zn^2+-induced Aβ1–42 aggregation” value in data set [6] is 59.3%. For the same molecule, the “protein aggregation inhibition in HEK-tau cells, result in words” value in data set [2] is “effective in reducing protein aggregation”. Moreover, in data set [3], the EC50 amounted to 1.48 µM. Also, the “protein aggregation inhibition in SY5Y-APPSw cells, result in words” value in data set [4] was “most effective; also recorded: effective in reducing protein aggregation”.
